From patent US9974856B2, “Method of treating androgen deficiency in women” (Parapharm Ltd., priority 2009, dated 2018)

System: human subject with diagnosed osteopenia
Assay: Mineral bone density (forearm scanner DXT-200) and serum calcium in a subject with osteopenia
Format: in vivo
Settings: after a one-month break in the administration, following six-month course of 1 g 3 times a day
Method: A human subject. The mineral bone density of T−1.4 was measured in the distal antibrachium by means of the forearm scanner DXT-200 available from Osteometer MediTech, Inc. Osteopenia was diagnosed and 1 g of calcium gluconate was administered 3 times a day. A six-month course of preventive medication was conducted. […] That is, the mineral bone density (MBD) became less. […] For reference: MBD normal value—the values of T criterion with a standard deviation of +1 to −1 from the peak bone mass; • 1st degree osteopenia—MBD of −1 to −1.5; • 2nd degree osteopenia—MBD of −1.5 to −2; • 3rd degree osteopenia—MBD of −2 to −2.5; • 1st degree osteoporosis—MBD of −2.5 and less without fractures; • 2nd degree osteoporosis—MBD of −2.5 and less with osteoporotic bone fractures. The densitometric T scale presents the number of standard deviations up and down an average bone mass value. The T criterion decreases in parallel with a gradual reduction in the bone mass with age and is used to evaluate the MBD in adults.
The same human subject with diagnosed osteopenia and the mineral bone density of T −1.6 was administered one capsule of the claimed biologically active food additive 3 times a day A six-month preventive medication course was conducted following the pattern of one-month administration/one-month break. The mineral bone density increased to T −1.2. The serum calcium value normalized. […]

calcium gluconate
serum calcium value: below the normal value
